Drawing on ChEMBL document CHEMBL3132769, “Fragment growing to retain or alter the selectivity of anchored kinase hinge-binding fragments” (Medchemcomm, 2014), this text covers inhibition for six compounds.

In experiment [1] the target is Casein kinase I isoform delta (Homo sapiens) (UniProt P48730). Put plainly: Inhibition of human CK1D catalytic domain expressed in Escherichia coli cell assessed as substrate phosphorylation using fluorescence-labelled peptides as substrate at 0.1 uM after 90 mins by microfluidic peptide phosphorylation assay.
Experiment [2] concerns the target MAP kinase p38 (Homo sapiens) (UniProt O15264+Q15759+Q16539+P53778). Put plainly: Inhibition of human full length p38 beta2 expressed in Escherichia coli cell assessed as substrate phosphorylation using fluorescence-labelled peptides as substrate at 420 uM after 90 mins by microfluidic peptide phosphorylation assay.
The test system of experiment [3] is Tyrosine-protein kinase ABL1 (Homo sapiens), P00519 [H396P]. Put plainly: Inhibition of human truncated ABL H396P mutant expressed in baculovirus assessed as substrate phosphorylation using fluorescence-labelled peptides as substrate at 420 uM after 90 mins by microfluidic peptide phosphorylation assay.
Experiment [4] addresses T1, Serine/threonine-protein kinase DCLK2 (Homo sapiens) (UniProt Q8N568).
T1 sequence (whole entry): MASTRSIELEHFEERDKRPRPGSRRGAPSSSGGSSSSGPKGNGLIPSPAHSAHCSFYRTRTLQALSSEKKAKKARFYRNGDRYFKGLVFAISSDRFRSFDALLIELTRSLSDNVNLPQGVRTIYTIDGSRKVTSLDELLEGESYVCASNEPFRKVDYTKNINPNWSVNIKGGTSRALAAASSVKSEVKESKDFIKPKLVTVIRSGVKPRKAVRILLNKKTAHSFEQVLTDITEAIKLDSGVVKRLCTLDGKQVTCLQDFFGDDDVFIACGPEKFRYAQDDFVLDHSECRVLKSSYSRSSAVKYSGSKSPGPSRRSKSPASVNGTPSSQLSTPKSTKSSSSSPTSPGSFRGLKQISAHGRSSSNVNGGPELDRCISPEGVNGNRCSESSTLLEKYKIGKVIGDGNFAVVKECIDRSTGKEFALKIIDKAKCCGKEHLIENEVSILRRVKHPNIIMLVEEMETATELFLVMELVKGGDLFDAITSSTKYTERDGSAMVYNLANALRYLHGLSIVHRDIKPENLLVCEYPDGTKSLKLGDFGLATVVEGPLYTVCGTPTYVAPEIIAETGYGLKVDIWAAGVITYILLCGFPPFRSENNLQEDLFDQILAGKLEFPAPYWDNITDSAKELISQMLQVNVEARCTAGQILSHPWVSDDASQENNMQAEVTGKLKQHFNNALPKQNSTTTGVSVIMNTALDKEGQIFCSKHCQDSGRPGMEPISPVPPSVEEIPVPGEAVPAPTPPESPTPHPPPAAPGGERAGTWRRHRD
As to the kind of experiment: Inhibition of human full length DCAMKL2 expressed in baculovirus assessed as substrate phosphorylation using fluorescence-labelled peptides as substrate at 95 uM after 90 mins by microfluidic peptide phosphorylation assay.

Experiment [5] relates to Tyrosine-protein kinase ABL1 (Homo sapiens), P00519 [T315I]. As to the kind of experiment: Inhibition of human truncated ABL T315I mutant expressed in baculovirus assessed as substrate phosphorylation using fluorescence-labelled peptides as substrate at 8 uM after 90 mins by microfluidic peptide phosphorylation assay.
The target of experiment [6] is T2, Cytoplasmic tyrosine-protein kinase BMX (Homo sapiens) (UniProt P51813).
T2 sequence (whole entry): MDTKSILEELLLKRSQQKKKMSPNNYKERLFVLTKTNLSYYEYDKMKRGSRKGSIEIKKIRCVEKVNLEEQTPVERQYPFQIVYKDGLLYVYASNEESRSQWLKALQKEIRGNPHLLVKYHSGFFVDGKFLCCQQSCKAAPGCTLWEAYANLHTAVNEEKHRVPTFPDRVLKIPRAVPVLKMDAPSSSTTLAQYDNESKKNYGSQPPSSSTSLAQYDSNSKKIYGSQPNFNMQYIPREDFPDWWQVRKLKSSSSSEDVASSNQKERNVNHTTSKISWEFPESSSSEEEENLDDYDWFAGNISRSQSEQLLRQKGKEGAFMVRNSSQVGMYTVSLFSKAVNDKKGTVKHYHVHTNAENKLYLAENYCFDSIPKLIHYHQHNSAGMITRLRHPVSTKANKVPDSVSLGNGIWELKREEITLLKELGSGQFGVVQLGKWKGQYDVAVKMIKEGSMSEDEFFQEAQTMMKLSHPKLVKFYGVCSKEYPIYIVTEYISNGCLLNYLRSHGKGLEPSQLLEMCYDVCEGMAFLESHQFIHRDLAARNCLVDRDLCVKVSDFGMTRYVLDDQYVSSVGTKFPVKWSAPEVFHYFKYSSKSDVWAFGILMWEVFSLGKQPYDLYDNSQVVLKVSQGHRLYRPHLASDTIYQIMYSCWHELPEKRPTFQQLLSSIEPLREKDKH
Put plainly: Inhibition of human full length BMX expressed in baculovirus assessed as substrate phosphorylation using fluorescence-labelled peptides as substrate at 1000 uM after 90 mins by microfluidic peptide phosphorylation assay.

Experiment [7] concerns the target Tyrosine-protein kinase Fyn (Homo sapiens) (UniProt P06241). As to the kind of experiment: Inhibition of human full length FYN expressed in baculovirus assessed as substrate phosphorylation using fluorescence-labelled peptides as substrate at 70 uM after 90 mins by microfluidic peptide phosphorylation assay.
For experiment [8], the target named is T3, Testis-specific serine/threonine-protein kinase 2 (Homo sapiens) (UniProt Q96PF2).
T3 sequence (whole entry): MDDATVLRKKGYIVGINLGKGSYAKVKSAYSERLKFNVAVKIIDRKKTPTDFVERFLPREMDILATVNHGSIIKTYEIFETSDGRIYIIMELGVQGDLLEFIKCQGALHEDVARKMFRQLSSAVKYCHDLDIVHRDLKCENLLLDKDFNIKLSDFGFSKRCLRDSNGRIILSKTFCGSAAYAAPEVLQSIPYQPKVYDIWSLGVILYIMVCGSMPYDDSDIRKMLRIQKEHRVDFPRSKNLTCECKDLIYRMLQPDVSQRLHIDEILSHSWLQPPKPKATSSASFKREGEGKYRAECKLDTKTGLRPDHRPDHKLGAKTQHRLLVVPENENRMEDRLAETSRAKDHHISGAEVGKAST
Put plainly: Inhibition of human full length TSSK2 expressed in baculovirus assessed as substrate phosphorylation using fluorescence-labelled peptides as substrate at 70 uM after 90 mins by microfluidic peptide phosphorylation assay.

The target in experiment [9] is T4, Serine/threonine-protein kinase Sgk2 (Homo sapiens) (UniProt Q9HBY8).
T4 sequence (whole entry): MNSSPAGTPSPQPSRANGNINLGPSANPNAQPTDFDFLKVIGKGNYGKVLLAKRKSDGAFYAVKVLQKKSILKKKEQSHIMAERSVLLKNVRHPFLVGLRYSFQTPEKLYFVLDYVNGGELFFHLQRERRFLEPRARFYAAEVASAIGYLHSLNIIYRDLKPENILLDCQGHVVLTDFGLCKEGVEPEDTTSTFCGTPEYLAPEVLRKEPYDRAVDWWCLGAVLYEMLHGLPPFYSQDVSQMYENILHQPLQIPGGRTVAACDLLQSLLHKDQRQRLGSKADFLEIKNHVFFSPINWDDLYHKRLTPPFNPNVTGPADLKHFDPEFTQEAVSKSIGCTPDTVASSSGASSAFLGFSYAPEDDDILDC
As to the kind of experiment: Inhibition of human full length SGK2 expressed in baculovirus assessed as substrate phosphorylation using fluorescence-labelled peptides as substrate at 70 uM after 90 mins by microfluidic peptide phosphorylation assay.

Tyrosine-protein kinase Fyn (Homo sapiens), sequence (P06241 2-537 limits assumed): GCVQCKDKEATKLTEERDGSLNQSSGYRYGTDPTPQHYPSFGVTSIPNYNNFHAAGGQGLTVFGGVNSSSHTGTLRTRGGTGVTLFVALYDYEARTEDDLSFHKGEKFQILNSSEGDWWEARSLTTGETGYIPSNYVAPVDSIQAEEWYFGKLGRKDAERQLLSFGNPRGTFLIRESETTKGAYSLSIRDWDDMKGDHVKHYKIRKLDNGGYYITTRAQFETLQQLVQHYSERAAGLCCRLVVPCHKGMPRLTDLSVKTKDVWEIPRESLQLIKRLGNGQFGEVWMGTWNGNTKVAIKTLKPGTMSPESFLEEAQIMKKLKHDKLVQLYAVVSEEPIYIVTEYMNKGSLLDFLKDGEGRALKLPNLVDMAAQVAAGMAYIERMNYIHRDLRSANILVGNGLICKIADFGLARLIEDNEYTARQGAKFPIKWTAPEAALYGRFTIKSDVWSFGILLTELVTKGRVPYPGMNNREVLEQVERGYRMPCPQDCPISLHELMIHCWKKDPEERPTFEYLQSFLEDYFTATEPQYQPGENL
Casein kinase I isoform delta (Homo sapiens), sequence (P48730 whole entry, looked up, the tested form may be a part, canonical isoform): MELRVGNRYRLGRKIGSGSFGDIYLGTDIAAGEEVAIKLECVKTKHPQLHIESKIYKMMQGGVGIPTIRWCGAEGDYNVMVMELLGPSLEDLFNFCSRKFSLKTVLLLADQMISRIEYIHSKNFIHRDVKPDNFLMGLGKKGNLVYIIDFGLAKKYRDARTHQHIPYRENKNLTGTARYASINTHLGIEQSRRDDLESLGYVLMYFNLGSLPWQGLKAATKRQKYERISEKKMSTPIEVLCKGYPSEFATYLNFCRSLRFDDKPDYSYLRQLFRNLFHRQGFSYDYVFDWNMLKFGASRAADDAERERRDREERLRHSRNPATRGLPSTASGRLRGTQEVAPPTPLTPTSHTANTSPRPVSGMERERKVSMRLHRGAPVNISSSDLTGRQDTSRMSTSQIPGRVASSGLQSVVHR

Regarding `C[C@H](CN(C)C)Oc1nc(Nc2cc3cccc(Cl)c3cn2)cnc1C#N`, the inhibition in experiment [1] was 9.5%.
With `c1nc(N2CCOCC2)c2nc[nH]c2n1`, the inhibition in experiment [2] is 1.5%; in [3], 71%.
Consider `NCCc1ccc(-c2ncnc3[nH]cnc23)cc1`, for which the inhibition in [4] is 35%.
In the case of `NCC1CCN(c2ncnc3[nH]ccc23)CC1`, in experiment [5], the inhibition is 53%.
`c1cnc2[nH]ccc2c1`: the inhibition in experiment [6] was 22%.
Turning to `CNCc1ccc(-c2ncnc3[nH]cnc23)cc1`, the results for the inhibition in experiment [7], in [8] and in [9] were 31.5%, 10% and 74%, respectively.
